# Experiments:
# Type in all cases: cell-based
# [1] = target: ENaC activity in mouse tracheal epithelial (MTE) monolayers, control; test: Ussing chamber short-circuit current, control MTE monolayers (uninduced δ802Tg)
# [2] = target: ENaC activity in δ802-ENaC expressing mouse tracheal epithelial (MTE) monolayers; test: Ussing chamber short-circuit current, δ-ENaC MTE monolayers (induced δ802Tg/Cre)
# [3] = target: T1, human αβγ-ENaC (Homo sapiens, UniProt P37088+P51168+P51170); test: Two-electrode voltage clamp of αβγ-ENaC expressed in Xenopus oocytes
# T1 construct: expressed in transfected cells; host or cells: Xenopus laevis oocytes injected with cRNA (pGEM HE vector)
# T1 sequence (P37088 1-669): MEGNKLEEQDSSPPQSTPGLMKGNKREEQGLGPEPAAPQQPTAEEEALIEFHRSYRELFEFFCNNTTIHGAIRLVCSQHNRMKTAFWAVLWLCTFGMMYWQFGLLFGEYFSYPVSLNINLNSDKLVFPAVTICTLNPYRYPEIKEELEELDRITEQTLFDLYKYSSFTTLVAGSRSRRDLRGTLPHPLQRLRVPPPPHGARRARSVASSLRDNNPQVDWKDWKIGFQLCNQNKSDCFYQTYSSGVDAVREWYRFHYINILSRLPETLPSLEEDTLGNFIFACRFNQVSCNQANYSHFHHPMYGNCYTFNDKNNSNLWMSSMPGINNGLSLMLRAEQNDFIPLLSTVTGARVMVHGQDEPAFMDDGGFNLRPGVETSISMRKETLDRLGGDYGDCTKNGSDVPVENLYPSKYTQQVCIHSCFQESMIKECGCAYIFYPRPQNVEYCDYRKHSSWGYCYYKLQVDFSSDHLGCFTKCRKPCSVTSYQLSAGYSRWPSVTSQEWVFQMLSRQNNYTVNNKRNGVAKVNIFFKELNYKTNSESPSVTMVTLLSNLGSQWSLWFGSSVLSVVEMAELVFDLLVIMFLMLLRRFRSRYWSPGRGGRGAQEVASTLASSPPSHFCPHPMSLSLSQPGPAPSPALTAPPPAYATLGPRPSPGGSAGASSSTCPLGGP
# T1 sequence (P51168 1-640): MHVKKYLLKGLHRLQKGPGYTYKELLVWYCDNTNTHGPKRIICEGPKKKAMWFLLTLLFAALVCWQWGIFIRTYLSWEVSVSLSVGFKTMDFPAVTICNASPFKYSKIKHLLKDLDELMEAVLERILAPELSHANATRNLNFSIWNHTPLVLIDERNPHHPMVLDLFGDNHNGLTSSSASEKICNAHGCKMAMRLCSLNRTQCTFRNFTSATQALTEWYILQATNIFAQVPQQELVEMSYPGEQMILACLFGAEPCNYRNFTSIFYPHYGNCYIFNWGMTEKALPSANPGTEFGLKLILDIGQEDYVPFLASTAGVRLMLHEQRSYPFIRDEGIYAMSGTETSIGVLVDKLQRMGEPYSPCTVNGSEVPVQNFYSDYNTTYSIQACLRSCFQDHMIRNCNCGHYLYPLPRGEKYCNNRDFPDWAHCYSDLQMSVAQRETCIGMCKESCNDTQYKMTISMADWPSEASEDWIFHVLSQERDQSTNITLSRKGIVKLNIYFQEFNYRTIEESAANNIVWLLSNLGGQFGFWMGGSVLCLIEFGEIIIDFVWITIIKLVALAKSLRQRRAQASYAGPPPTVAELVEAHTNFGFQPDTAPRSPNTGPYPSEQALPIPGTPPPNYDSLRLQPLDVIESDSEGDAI
# T1 sequence (P51170 1-649): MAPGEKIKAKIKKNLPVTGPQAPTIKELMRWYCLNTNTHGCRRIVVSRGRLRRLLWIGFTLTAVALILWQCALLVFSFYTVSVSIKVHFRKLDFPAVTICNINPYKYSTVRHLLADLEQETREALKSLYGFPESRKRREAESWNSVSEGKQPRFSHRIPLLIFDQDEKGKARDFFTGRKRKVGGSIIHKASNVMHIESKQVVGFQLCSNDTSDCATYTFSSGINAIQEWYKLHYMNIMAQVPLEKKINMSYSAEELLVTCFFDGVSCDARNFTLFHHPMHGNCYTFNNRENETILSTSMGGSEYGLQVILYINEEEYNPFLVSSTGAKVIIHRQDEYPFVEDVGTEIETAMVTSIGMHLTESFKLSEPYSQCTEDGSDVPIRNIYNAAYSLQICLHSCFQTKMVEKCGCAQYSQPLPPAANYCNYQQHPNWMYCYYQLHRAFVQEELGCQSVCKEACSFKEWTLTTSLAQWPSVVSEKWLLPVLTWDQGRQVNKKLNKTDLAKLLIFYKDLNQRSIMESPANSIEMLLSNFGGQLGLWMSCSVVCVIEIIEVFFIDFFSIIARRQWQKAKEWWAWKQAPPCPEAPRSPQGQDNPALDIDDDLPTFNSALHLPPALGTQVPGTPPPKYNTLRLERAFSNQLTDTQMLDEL
# Method: Cloning, in vitro transcription, and heterologous expression of δ802 ENaC and two-electrode voltage clamping assay. δ802 and other ENaC subunits were generated in human ENaC cDNAs cloned into a pGEM HE vector [4], [76]. cRNAs of human α, β, and γ ENaC were prepared as described previously. The stoichiometry of native ENaC complexes is unclear to date. Based on the studies in the last decade, several models have been proposed for αβγ ENaC channels: 1α1β1γ, 2α1β1γ, 3α3β3γ. Based on the EM structure of human αβγ ENaC [35], the currently acceptable model of human αβγ ENaC complexes is heterotrimeric (1α1β1γ). Thus we microinjected δ802:β:γ in a 1:1:1 subunit ratio. Oocytes were surgically removed from appropriately anesthetized adult female Xenopus laevis (Xenopus Express). Briefly, the ovarian tissue was removed from the frog under anesthesia by tricaine-S (Western Chemicals) through a small incision in the lower abdomen. Ovarian lobes were removed and digested in OR-2 calcium-free medium (in mM: 82.5 NaCl, 2.5 KCl, 1.0 MgCl2, 1.0 Na2HPO4, and 10.0 HEPES, pH 7.5) with the addition of 2 mg/ml collagenase (Roche, Indianapolis). Defolliculated oocytes were injected with ENaC cRNAs into the cytosol (25 ng per oocyte in 50 nl of RNase-free water) and incubated in regular OR-2 medium at 18°C. The two-electrode voltage-clamp technique was used to record whole-cell currents 48 h post injection. Oocytes were impaled with two electrodes filled with 3M KCl, having resistance of 0.5 - 2 MΩ. A TEV-200A voltage-clamp amplifier (Dagan) was used to clamp oocytes with concomitant recording of currents. Two reference electrodes were connected to the bath. The continuously perfused bathing solution was ND-96 medium (in mM: 96.0 NaCl, 1.0 MgCl2, 1.8 CaCl2, 2.5 KCl, and 5.0 HEPES, pH 7.5). Whole-cell currents were recorded as previously reported. Experiments were controlled by pCLAMP 10.7 software (Molecular Devices), and currents at -40 mV, -100 mV, and +80 mV were continuously monitored with data recorded at intervals of 10 sec. Data were sampled at the rate of 200 Hz and filtered at 50 Hz.
# [4] = α-13 300 μM apical, MTE monolayers, n=6
molecule,measurement,setting,value
N=C(N)NC(=O)c1nc(Cl)c(N)nc1N [amiloride],Ki,"[1]; Isc, Ussing chamber, amiloride 1 - 1,000 μM, n=5, read-out: ki value (logistic function), control MTE monolayers (converted)",680 nM
same,Ki,"[2]; Isc, Ussing chamber, amiloride 1 - 1,000 μM, n=5, read-out: ki value (logistic function), δ-ENaC MTE monolayers (converted)",3040 ± 260 nM
Ac-LRGTLPHPLQRLR-NH2 [α-13 peptide],α-13 inhibitable fraction of αβγ-ENaC channels after plasmin / aprotinin pre-treatment,"[3]; n=8, Figure 3E",not significantly affected by fibrinolytic activity
same,IC50,"[3]; oocytes, current at -100 mV, n=4, Chi^2 = 0.44, R^2 = 0.993, read-out: IC50 on αβγ-ENaC channels (Hill equation)",100 ± 10 nM
same,inhibition of human αβγ-ENaC current,"[3]; α-13 300 μM compared with amiloride 10 μM, -100 mV, subsequent amiloride did not reduce activity further",same efficacy as amiloride
same,"α-13 peptide-inhibitable fraction of Isc, control cells",[1]; [4],96%
same,"α-13 peptide-inhibitable fraction of Isc, δ802-ENaC cells",[2]; [4],52%
"plasmin: serine protease of the plasmin(ogen) signal pathway for fibrinolysis (protein, UniProt P00747 20-580; P00747 581-810, looked up, Plasmin, serine protease of the plasmin(ogen) signal pathway for fibrinolysis) Plasmin heavy chain A: EPLDDYVNTQGASLFSVTKKQLGAGSIEECAAKCEEDEEFTCRAFQYHSKEQQCVIMAENRKSSIIIRMRDVVLFEKKVYLSECKTGNGKNYRGTMSKTKNGITCQKWSSTSPHRPRFSPATHPSEGLEENYCRNPDNDPQGPWCYTTDPEKRYDYCDILECEEECMHCSGENYDGKISKTMSGLECQAWDSQSPHAHGYIPSKFPNKNLKKNYCRNPDRELRPWCFTTDPNKRWELCDIPRCTTPPPSSGPTYQCLKGTGENYRGNVAVTVSGHTCQHWSAQTPHTHNRTPENFPCKNLDENYCRNPDGKRAPWCHTTNSQVRWEYCKIPSCDSSPVSTEQLAPTAPPELTPVVQDCYHGDGQSYRGTSSTTTTGKKCQSWSSMTPHRHQKTPENYPNAGLTMNYCRNPDADKGPWCFTTDPSVRWEYCNLKKCSGTEASVVAPPPVVLLPDVETPSEEDCMFGNGKGYRGKRATTVTGTPCQDWAAQEPHRHSIFTPETNPRAGLEKNYCRNPDGDVGGPWCYTTNPRKLYDYCDVPQCAAPSFDCGKPQVEPKKCPGR Plasmin light chain B: VVGGCVAHPHSWPWQVSLRTRFGMHFCGGTLISPEWVLTAAHCLEKSPRPSSYKVILGAHQEVNLEPHVQEIEVSRLFLEPTRKDIALLKLSSPAVITDKVIPACLPSPNYVVADRTECFITGWGETQGTFGAGLLKEAQLPVIENKVCNRYEFLNGRVQSTELCAGHLAGGTDSCQGDSGGPLVCFEKDKYILQGVTSWGLGCARPNKPGVYVRVSRFVTWIEGVMRNN",effect of pre-treatment on αβγ-ENaC activity,"[3]; oocytes pre-treated, currents at -100 mV, n=5, Figure 3D",potentiated

# Source: paper PMC6857051, “Proliferative regulation of alveolar epithelial type 2 progenitor cells by human Scnn1d gene” (Theranostics, 2019)
